According to PubChem BioAssay AID2305 (GlaxoSmithKline (GSK), 2010):
Several values for one entry are separate records, joined by “and”; a condition that tells them apart may be missing. Equal values may be shown once.

Tested on: P. falciparum 3D7 growth, pLDH absorbance
Experiment: P. falciparum 3D7 growth inhibition, dose response, strain 3D7 (AID 2305)

SMILES | IC50
COc1ccc2ncc(F)c(CCN3C[C@H](CNCc4ccc5ccccc5c4)[C@H](O)C3)c2n1 | 500 nM
COc1ccc2ncc(F)c(CCN3CCC(NCc4cc(Br)c5c(c4)OCCO5)CC3)c2n1 | 190 nM
COc1cccc(/C=C/C(=O)NC2CCC(CN3CCC(c4c[nH]c5ccccc45)CC3)CC2)c1 (centres undefined) | 830 nM and 770 nM
Cc1cc(C)cc(NC(=S)NCCCCN2CCN(c3cccc(Cl)c3)CC2)c1 | 1350 nM
Cc1cc(NC(=O)Nc2cccc(N(C)C)c2)c2ccccc2n1 | 200 nM
COc1cccc(Nc2c(C(N)=O)cnc3ccc(-c4ccccc4)cc23)c1 | 770 nM
CC1(C)N=C(N)N=C(N)N1OCc1cccc(C#N)c1 | 10 nM
CCc1c[nH]c2c(N(c3ccccc3)S(C)(=O)=O)cc(C(=O)N[C@@H](Cc3ccccc3)[C@H](O)CNCc3cccc(C(F)(F)F)c3)cc12 | 1000 nM
O=C1CCCN1CCCNCc1ccc(-c2ccc(-c3nc4ccc(F)cc4[nH]3)s2)cc1 | 900 nM
Cc1oc(-c2ccccc2)nc1CCOc1ccc(C[C@H](Nc2ccccc2C(=O)c2ccccc2)C(=O)NCc2ccccn2)cc1 | 880 nM
COc1ccc(CCN(C)CCOc2ccc(NC(=O)c3cccc4cc5ccccc5nc34)cc2)cc1OC | 680 nM
COc1ccc2nccc(N3CCC(SCCNCc4cc5c(cn4)OCCO5)C3)c2n1 (centres undefined) | 770 nM
COc1ccccc1/C=C/C(=O)N(C)C1CCN(CCCCCNC(=O)/C=C/c2ccc(Cl)c(Cl)c2)C1 (centres undefined) | 870 nM
COc1ccc(C[C@@H](N)C(=O)N[C@H]2[C@@H](O)[C@H](n3cnc4c(N(C)C)ncnc43)O[C@@H]2CO)cc1 | 170 nM
CCOC(=O)c1ccc(N=C2SC(=Cc3cc(Br)ccc3O)C(=O)N2C)cc1 | 1000 nM
CCOC(=O)c1ccc(NC(=O)Nc2cccc(-c3cccc(-c4nc5ccccc5[nH]4)c3)c2)cc1 | 70 nM
O=C(Nc1ccc(-c2ccccc2)cc1)Nc1cccc(Cn2cnc(N3CCCNCC3)cc2=O)c1 | 1080 nM
C=CCOc1ccc(Cc2cnc(N)nc2N)cc1CCC | 1020 nM
CCOCCCNc1sc(S(=O)(=O)c2ccccc2)nc1S(=O)(=O)c1ccc(C)cc1 | 810 nM
Nc1ncc(-c2ccsc2)c2ccc(-c3ccc4cn[nH]c4c3)cc12 | 810 nM
CC(C)CCNCC(O)Cn1c2ccc(Cl)cc2c2cc(Cl)ccc21 (centres undefined) | 450 nM
CC(C)NCc1ccc(-c2cccc(NC(=O)c3ccc(F)cc3)c2)cc1 | 880 nM
FC(F)(F)c1ccc2nccc(NN=Cc3cccnc3)c2c1 | 630 nM
CC(C)(C)CC(=O)Nc1ccc(Nc2cc(-c3ccncc3)cc3ncc(C(N)=O)cc23)cc1 | 700 nM
CCN(CC)CCN(Cc1ccc(-c2ccc(C(F)(F)F)cc2)cc1)C(=O)Cn1c(CCc2c(F)ccc(F)c2F)nc(=O)c2ccccc21 | 240 nM

SMILES | IC50
FC(F)(F)c1cc(C(F)(F)F)c2cc(CNCCCNc3nc4ccccc4[nH]3)[nH]c2c1 | 140 nM
Cc1cccc2[nH]c(-c3cccc(-c4cccc(NC(=O)C5CC(=O)Nc6ccccc65)c4)c3)nc12 (centres undefined) | 60 nM
O=C(Nc1ccc(Oc2ccccc2)cc1)N(Cc1ccc(-c2ccc(CN3CCNCC3)cc2)cc1)C1CCN(Cc2ccccc2)CC1 | 890 nM
CCOc1cc(C(=O)NCc2ccc(Cl)c(Cl)c2)ccc1-c1nc2ccc(Cl)cc2[nH]1 | 800 nM
CN1CCN(c2ccnc3ccc(NC(=O)Nc4ccc(-c5ccncc5)c(C#N)c4)cc23)CC1 | 160 nM
CC(C)(C)c1ccc(-c2ccccc2CNC(=O)c2cccc(O)c2)cc1 | 270 nM
CC(C)c1ccc(CN2CCC(CNC(=O)c3cc(-c4cccc(Cl)c4)cs3)C2)cc1 (centres undefined) | 750 nM
COc1ccc2nccc(N3CCC(NCc4ccc5c(n4)NC(=O)CS5)CC3)c2n1 | 860 nM
CN1CCCN(Cc2ccc(-c3cccc(NC(=O)c4ccc(C#N)cc4)c3)cc2)CC1 | 740 nM
CCCc1c(C(=O)NC2CCC(CN3CCC(c4c[nH]c5ccccc45)CC3)CC2)cnn1-c1ccc(Cl)cc1 (centres undefined) | 760 nM
COc1ccc(O)cc1/C=N/Nc1ccnc2cc(Cl)ccc12 | 540 nM
COc1ccc2nc(-c3cc(-c4ccc(NC(=O)C(C)C)cc4)cnc3N)[nH]c2c1 | 560 nM
FC(F)(F)CNc1nc(Nc2ccc3ncccc3c2)nc2[nH]ccc12 | 1240 nM
O=S(=O)(Nc1cccc(CCN2CCC(N3CCCCC3)CC2)c1)c1ccc(Cl)cc1 | 920 nM
COc1ccc2nccc(N3CCC(NCCNS(=O)(=O)c4ccc5c(c4)NC(=O)CS5)C3)c2n1 (centres undefined) | 900 nM
O=C(Nc1cccc(-c2cccc(F)c2)c1)C1CCN(Cc2ccc(O)cc2)CC1 | 1730 nM
O=C(Nc1ccc(Cn2ncc(N3CCCNCC3)c(Cl)c2=O)cc1)Nc1ccc(SC(F)(F)F)cc1 | 530 nM
CCCCN(CCCC)CCNC(=O)c1cc(OC(F)(F)F)ccc1O | 920 nM
O=C(Nc1ccc(F)cc1F)NC1CCN(c2ccnc3cc(Cl)ccc23)C1 (centres undefined) | 250 nM
CCOC(=O)c1c(C)n(-c2ccc(Cl)cc2)c2ccc(OC(=O)C=Cc3ccccc3)cc12 | 700 nM
Oc1ccccc1CNCc1ccc(-c2cnc(N3CCCC(c4ccccc4)C3)nc2)cc1 (centres undefined) | 690 nM
O=C(Nc1cccc(CN2CCCN(Cc3cccc(Cl)c3)CC2)c1)c1ccc(Cl)c(Cl)c1 | 990 nM
N#Cc1ccc(NC(=O)Nc2ccc3c(c2)CCN(C2CCC2)CC3)cc1 | 630 nM
COc1cc(NC(=O)N2CCOC(CCN3CCC(c4ccccc4)CC3)(c3ccc(Cl)c(Cl)c3)C2)cc(OC)c1OC (centres undefined) | 70 nM
Cc1cccc2[nH]c(-c3ccc(-c4cccc(CN5CCC(C(N)=O)CC5)c4)s3)nc12 | 1260 nM

SMILES | IC50
CNC(=O)c1cnc(Nc2ccc(OCC(O)CN(C)C)cc2)nc1Nc1cccc(Br)c1 (centres undefined) | 120 nM
Nc1ncc(-c2ccsc2)c2ccc(-c3cnc[nH]3)cc12 | 570 nM
COc1cccc2c(NN=Cc3ccc([N+](=O)[O-])cc3)ccnc12 | 890 nM
O=C(/C=C/c1ccc(Cl)c(Cl)c1)NCCCCCN1CCC(NC(=O)NC2CCCC2)CC1 | 630 nM
CCCN1CCN(c2ccc(NS(=O)(=O)c3ccc(C(=O)Nc4ccc(Cl)cc4)cc3)cc2)CC1 | 1110 nM
COc1ccc(C2=C(Nc3ccc4oc5ccccc5c4c3)c3ccccc3C2=O)cc1 | 830 nM
O=C(/C=C/c1ccc(Cl)c(Cl)c1)NCCCCCN1CCC(NC(=O)Nc2cccc(Cl)c2)CC1 | 750 nM
COc1cccc(CC(=O)NC2CCN(c3ccnc4cc(Cl)ccc34)C2)c1 (centres undefined) | 700 nM
OC(CNCc1ccccc1OCc1ccccc1)c1cc(C(F)(F)F)cc(C(F)(F)F)c1 (centres undefined) | 130 nM
O=C(Nc1cccc(C(F)(F)F)c1)NC1CCN(c2ccnc3cc(Cl)ccc23)C1 (centres undefined) | 120 nM
Cc1ccc(NC(=O)NC2CCN(c3ccnc4cc(Cl)ccc34)CC2)cc1 | 320 nM
N#Cc1ccc2c(c1)CCN(CCC1CCC(NC(=O)c3cc4cccc(Cl)c4[nH]3)CC1)CC2 (centres undefined) | 580 nM
Cc1ccc(CC(C)NCC(O)c2cccc(C#N)c2)cc1 (centres undefined) | 940 nM
O=C(Nc1cccc(OC2CCN(Cc3ccc(F)cc3)CC2)c1)c1ccc(C(F)(F)F)cc1 | 950 nM
c1ccc(CN2CCC(NCc3cccc(-c4cncc5ccccc45)c3)CC2)cc1 | 1360 nM
C=C[C@H]1CN(CCCCCCC)CC[C@H]1CC(O)Cc1ccnc2cc(O)c(OC)cc12 (some centres undefined) | 820 nM
O=C(/C=C/c1ccc(Cl)c(Cl)c1)NCC(CCCN1CCC(c2c[nH]c3ccccc23)CC1)c1ccccc1 (centres undefined) | 810 nM
O=C(Nc1cccc(CN2CCCN(Cc3ccccc3)CC2)c1)c1ccc(-c2ccccc2)cc1 | 1300 nM
CC(=O)N(Cc1ccccc1-c1cccc(CNCCc2ccccc2)c1)C1CCN(Cc2ccccc2)CC1 | 1100 nM
CCCCc1nc2nc(N)nc(N)c2cc1CCC | 310 nM
Cn1cncc1C(=O)Nc1ccc(-c2cccc(-c3nc4ccc(F)cc4[nH]3)c2)cc1 | 820 nM
COc1ccc(CNc2nc(NCc3ccc(C(F)(F)F)cc3)c3cc(OC)c(OC)cc3n2)cc1OC | 210 nM
CC(C)(C)COC(=O)c1ccc(NC(=O)N[C@@H](Cc2ccc(O)cc2)C(=O)NC2CCN(Cc3ccc(O)cc3)C2)cc1 (some centres undefined) | 670 nM
Cc1cc(C)n(-c2nc(Nc3cccc(C(F)(F)F)c3)nc(-n3nc(C)cc3C)n2)n1 | 360 nM
O=C(NCCN1CCCc2ccccc21)C1CCN(c2nc(-c3ccc(Cl)cc3)no2)CC1 | 690 nM

SMILES | IC50
Oc1cc2c(cc1CN1CCN(Cc3cccs3)CC1)CCC2 | 840 nM
Cc1ccc(-c2ccc(Cl)cc2Oc2cnc(N)nc2N)o1 | 1080 nM
CCOC(=O)CCCc1cc(NC2CCN(C)CC2)nc(Nc2ccc(C)cc2)n1 | 260 nM
COc1ccc2c(OC)c(CNCCCCCCNCc3ccc4cc(OC)ccc4c3OC)ccc2c1 | 920 nM
CCCN(CCC)CC(O)COc1ccccc1C(=O)Nc1ccccc1 (centres undefined) | 800 nM
CCCN1CCC(NCc2cn(C)nc2-c2ccc(Oc3ccccc3)cc2)CC1 | 1440 nM
CNC(=O)C(NC(=O)c1ccccc1C(=O)OC)c1ccccc1 (centres undefined) | 560 nM
Cc1cc(N[C@@H](CC(C)C)C(=O)NCCCOC(C)C)nc(NCCc2ccc(F)cc2)n1 | 1250 nM
CCCCCCc1cc2cc(-c3csc(C=Cc4ccccc4)n3)c(=O)oc2cc1O | 970 nM
NC(=NCCCCC1CCCCC1)c1cccc(C(N)=NCCCCC2CCCCC2)n1 | 390 nM
O=C1COc2ccc3ccccc3c21 | 700 nM
Cc1noc(C)c1-c1ccc2c(Nc3ccc(Cl)cc3)c(C(N)=O)cnc2c1 | 830 nM
COc1ccccc1C1CCN(C2CCC(NC(=O)/C=C/c3cc(F)c(F)cc3F)CC2)CC1 (centres undefined) | 1600 nM
CCN1CCN(Cc2ccc(-c3ccc(NS(=O)(=O)c4cccc5cccnc45)cc3)cc2)CC1 | 920 nM
Cc1cccc2[nH]c(-c3ccc(-c4ccc(CNCc5ccccc5)cc4)s3)nc12 | 210 nM
COc1ccc(C2CC(c3cccs3)=NN2C(=O)CNc2cccc(C#N)c2)cc1OC (centres undefined) | 1450 nM
CS(=O)(=O)c1cccc(-c2cnc3[nH]cc(-c4ccc(CCC(=O)O)cc4)c3c2)c1 | 630 nM
CN(C)C(=O)CN1CCN(c2ncnc(N3CCc4c([nH]c5ccccc45)[C@@H]3c3ccc4c(c3)CCO4)n2)CC1 | 870 nM
Cc1ccc(Nc2nc(C)cc(Nc3cccc(NS(C)(=O)=O)c3)n2)cc1 | 920 nM
CC(C)(C)c1ccc(NC(=O)c2ccc(CN3CCCN(Cc4cccc(Cl)c4)CC3)cc2)cc1 | 970 nM
Cc1cccc2[nH]c(-c3ccc(-c4ccc(C(=O)NCCN5CCCC5)cc4)cc3)nc12 | 520 nM
CCCNCc1ccc(-c2ccc(CN(CCOC)C(=O)Cc3cccnc3)cc2)nc1 | 820 nM
N#Cc1ccc2nc(-c3ccccc3)[nH]c2c1 | 700 nM
CN(C)CCCNCc1ccc(-c2ccc(CNCCc3ccccc3)cc2)cc1 | 990 nM
